The text below walks through data of patent US20250152605A1, “METHOD AND DRUG FOR TREATING NEURONAL CEROID LIPOFUSCINOSIS” (priority 2021, published 2025).

For one assay, the system named is Cln3 KO mice. Briefly: Morris water maze. The format is in vivo, mouse. Conditions: 7th day test. As to the method:
To test the difference in learning and memory abilities of Cln3 KO mice and wild-type mice, and the effect of Compound G on learning and memory abilities of Cln3 KO mice, a Morris water maze was performed, with specific procedures as follows: the mice to be tested were kept in single cages for more than 1 week to adapt to the environment; the maze used in this study was a circular pool with a diameter of 120 cm and a depth of 40 cm; the pool wall is divided into four quadrants including northeast (NE), northwest (NW), southwest (SW) and southeast (SE) with circles, squares, triangles and crosses respectively. The platform was placed at a fixed position in the SW quadrant with a diameter of 11 cm and a height of 18 cm; milky white water containing titanium dioxide was added to the pool, the amount of added water being just short of the platform is suitable; the water temperature was adjusted to about 22° C.; the mouse was gently put into the water from the designated position shown in Table 5, and the movement of the mouse within 60 seconds was recorded through the video equipment. If the mouse found the platform within 60 seconds, its time to find the platform was recorded; if the mouse could not find the platform within 60 seconds, it was guided to the platform and held for 15 seconds.
The mice were removed from the platform, wiped clean with a dry towel and returned to their cages. Each mouse was trained 4 times a day, with a 30-minute interval between each training, for a total of 6 days, and mice that cannot swim were excluded; on the Day 7, the platform in the water was taken out, and then the mice were gently put into the water from the NE direction, and the movement of the mouse within 60 seconds was recorded with a video equipment. The time it took for the mouse to find the platform for the first time and the time the mouse stayed in the SW quadrant were analyzed and counted using Noldus software. In addition, the experimenter manually counted the number of times the mouse crossed the location of the original platform within 60 seconds.
Starting from day 21 on which the Cln3 KO mice were weaned, treatment of Compound G was continuously provided. […]
First, the mice were trained in the water maze for 6 days, and the time it took for them to find the underwater platform was recorded. […] The time that the mice spent reaching the position of the original platform for the first time, the number of shuttles at the position of the original platform and the time stayed in the quadrant of the original platform were recorded, which characterized whether they have learned the position of the underwater platform through the first 6 days of training.

Another assay has as its system p62 protein. The assay is described as follows: p62 protein blotting with Baf-A1 (autophagic flux) in human neurons. The format is cell-based. As to the method:
Sample preparation: for adherent cultured cells, exemplified by cells cultured in a six-well cell plate, the cell medium was aspirated and the cells were washed once with dPBS. About 100 μL of RIPA lysate (50 mM Tris-HCl, pH 7.5, 150 mM NaCl, 0.25% Na-deoxycholate, 0.1% NP-40, 0.1% Triton X-100) containing protease inhibitors and phosphatase inhibitors was added to each well. The cell lysate was scraped off completely with a cell scraper and collected into 1.5 mL EP tubes. Lysis was continued for 30 minutes on ice. For animal tissue, the weight of the animal tissue was weighed, and RIPA lysate containing protease inhibitors and phosphatase inhibitors was added with five times the volume of the animal tissue. The tissue was grinded on ice with a tissue grinder until there is no obvious tissue mass, collected into 1.5 mL EP tubes, and placed on ice for further lysis for 30 min. […]

As to `C/C=C1\C(=O)C[C@H]2[C@@H]3CCC4=CC(=O)CC[C@]4(C)[C@H]3CC[C@]12C` [Compound G, (Z)-guggulsterone], in the assay with Cln3 KO mice, the “movement speed of the mice in water” value is given as “no significant effect”, the “number of times they shuttle at the position of the original platform” value is listed as “closer to that of the wild-type mice”, the “time spent reaching the position of the original platform for the first time” value is listed as “effectively shorten” and the “time stayed in the quadrant of the original platform” value is given as “extended the time stayed in the quadrant of the original platform to a certain extent”. The “increases of p62 protein after adding Baf-A1 (autophagic flux)” value in the assay with p62 protein (CLN3^Δex7/8 human neurons) is “higher increases of p62 protein”. For the same compound, in the assay with p62 protein (under the condition of adding Baf-A1), the “intracellular protein level of p62” value is given as “still significantly increase”.
